From US8889677B2, “Substituted triazoles useful as mGlu5 receptor modulators” (Boehringer Ingellheim International GmbH, priority 2012, dated 2014) come the findings set out here.

T1 sequence (P41594 21-1212): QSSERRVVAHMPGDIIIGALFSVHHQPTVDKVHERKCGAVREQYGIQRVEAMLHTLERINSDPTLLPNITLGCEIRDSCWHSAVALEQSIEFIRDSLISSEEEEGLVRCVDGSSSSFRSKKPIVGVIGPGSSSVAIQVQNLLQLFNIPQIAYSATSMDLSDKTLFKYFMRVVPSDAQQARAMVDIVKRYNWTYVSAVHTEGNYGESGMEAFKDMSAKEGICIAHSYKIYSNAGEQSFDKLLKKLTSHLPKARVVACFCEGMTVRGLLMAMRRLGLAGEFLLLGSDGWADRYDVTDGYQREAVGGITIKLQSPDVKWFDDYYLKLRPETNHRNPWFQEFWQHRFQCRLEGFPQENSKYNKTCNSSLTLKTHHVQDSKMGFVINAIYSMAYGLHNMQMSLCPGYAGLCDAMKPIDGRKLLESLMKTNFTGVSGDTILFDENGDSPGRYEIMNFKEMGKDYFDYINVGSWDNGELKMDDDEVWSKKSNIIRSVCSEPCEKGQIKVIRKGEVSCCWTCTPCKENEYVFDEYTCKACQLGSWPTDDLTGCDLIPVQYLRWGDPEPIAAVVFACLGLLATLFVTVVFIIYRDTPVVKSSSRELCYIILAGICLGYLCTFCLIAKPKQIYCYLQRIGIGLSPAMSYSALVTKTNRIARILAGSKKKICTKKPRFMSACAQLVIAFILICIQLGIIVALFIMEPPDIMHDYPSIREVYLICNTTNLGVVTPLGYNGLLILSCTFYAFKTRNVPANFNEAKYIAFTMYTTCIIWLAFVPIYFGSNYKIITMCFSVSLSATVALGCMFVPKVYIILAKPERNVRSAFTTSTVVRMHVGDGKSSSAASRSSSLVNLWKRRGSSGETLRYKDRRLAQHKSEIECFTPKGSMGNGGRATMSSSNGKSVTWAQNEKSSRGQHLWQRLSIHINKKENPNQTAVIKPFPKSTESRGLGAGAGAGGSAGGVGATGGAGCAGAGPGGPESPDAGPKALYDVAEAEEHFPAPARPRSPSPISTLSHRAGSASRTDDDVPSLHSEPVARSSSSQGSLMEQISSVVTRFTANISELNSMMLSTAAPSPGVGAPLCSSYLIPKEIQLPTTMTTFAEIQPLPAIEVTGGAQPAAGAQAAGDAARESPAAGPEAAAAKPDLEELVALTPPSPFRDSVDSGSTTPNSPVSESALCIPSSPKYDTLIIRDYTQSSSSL

This assay concerns the target T1, human recombinant mGluR5 (Homo sapiens, UniProt P41594).
T1 construct: expressed in transfected cells; host or cells: HEK 293 cell line cultured with tetracycline, hygromycin and geneticin; tetracycline removed 3-7 days before the assay
The experiment in a line: positive modulation of mGluR5, calcium based FLIPR assay in HEK 293 cells. The note with it: HEK 293 cell line expressing human recombinant mGluR5; EC50 of the modulation of the glutamate response (glutamate approx. 5% basal stimulation); peak height of Ca release fluorescence signal. The protocol:
The positive modulation of mGluR5 is measured in a HEK 293 cell line expressing human recombinant mGluR5 and is detected with calcium based FLIPR assay. The cells are cultured with DMEM supplemented with 10% FCS, 2 μg/mL tetracycline, 100 μg/mL hygromycin and 500 μg/mL gneticin. The cell culture media is exchanged for tetracycline-free cell culture media 3-7 days before the assay. One day before the assay the cell culture medium is exchanged to DMEM without glutamine and phenol red and supplemented with 10% FCS, 100 μg/mL hygromycin and 500 μg/mL geneticin. On the assay day, the medium of the subconfluent cultures is removed and the cells are detached by addition of 2.5 ml EDTA (0.02%) per 175 cm2 culture flask for 1 minute. The cells are resuspend in Ringer solution (140 mM NaCl, 5 mM KCl, 2.5 mM CaCl2, 1.5 mM MgCl2, 5 mM Glucose, 10 mM Hepes; adjusted to pH 7.4 with NaOH), pooled and Ringer solution added to adjust the volume to 50 mL. The cell suspension is centrifuged for […] at 1500 U/min (425 g). The supernatant is removed and the cells washed a second time with 50 ml fresh Ringer solution and centrifuged again as before. The supernatant is again removed and the pellet resuspended in Ringer solution to 1,000,000 cells/ml (1×10^6 cells/mL). The cells are plated onto BD BioCoat Poly-D-Lysine 384 well plates (20.000 cells/well; 20 μl/well). The lid covered plates are then incubated until use at 37° C./10% CO2. For dye loading, 20 μl of Calcium-4 assay kit solution (prepared according to the manufacturer's description in Ringer solution) are added to the cells and the plates are incubated for 80 min 37° C. and then 10 min at room temperature.
Controls, Compound Dilution and Assay Execution:
Each assay plate contained wells with “high” and “low” controls:
Low controls 1% DMSO/ringer solution+basal glutamate activation (defined as 100% CTL).
High controls 10 μM CDPPB+basal glutamate activation (defined as 200% CTL).
Test compounds are dissolved and diluted in DMSO to 100-fold the desired concentrations. In a second step, the compounds are diluted in Ringer solution such that the compounds are 4-fold more concentrated than the desired final assay concentration. The final DMSO concentration was 1%.
20 μl of each compound solution are then transferred to the assay plate and the Ca2+ kinetic is measured to determine any intrinsic compound activity. After 5 min incubation in the FLIPR device, the second stimulation with 20 μl of glutamate in Ringer solution (glutamate concentration adjusted to approximately 5% basal stimulation of the maximal possible glutamate effect) is added and the kinetic Ca2+ response of the wells was measured for the modulation effect.
The peak height of the Ca release related fluorescence signal (9-66) is used for the EC50. The EC50 of the modulation is calculated over a nonlinear regression with GraphPad Prism (Table 1).
Usually EC50 stands for the concentration that produces a half-maximal response. For `CN(CC1CCOC1)c1cc(N2CCN(C(=O)Cn3nc(-c4ccc(F)cc4)nc3-c3ccc(F)cc3)CC2)ncn1` (centres unmarked) [Example 07.08.01., 2-(3,5-bis-(4-fluoro-phenyl)-(1,2,4)triazol-1-yl)-1-(4-(6-(methyl-(tetrahydro-furan-3-ylmethyl)-amino)-pyrimidin-4-yl)-piperazin-1-yl)-ethanone], the EC50 was determined as 201 nM.

With `O=C(Cn1nc(-c2ccc(F)cc2)nc1-c1ccc(F)cc1)N1CCN(c2ncccn2)CC1` [Example 07.01.01., 2-(3,5-Bis-(4-fluoro-phenyl)-(1,2,4)triazol-1-yl)-1-(4-pyrimidin-2-yl-piperazin-1-yl)-ethanone], the EC50 came out at 24 nM.

For `CN1CCN(c2cc(N3CCN(C(=O)Cn4nc(-c5ccc(F)cc5)nc4-c4ccc(F)cc4)CC3)ncn2)CC1` [Example 07.08.23.], the EC50 turned out to be 1590 nM.

For the compound `CCCCc1nc(-c2ccc(F)c(C)c2)nn1CC(=O)N1CCN(c2ccccn2)CC1` [Example 07.04.116.], the EC50 was determined as 697 nM.

For the compound `COCCCCOc1cc(N2CCN(C(=O)Cn3nc(-c4ccc(F)cc4)nc3-c3ccc(F)cc3)CC2)ncn1` [Example 07.09.01., 2-(3,5-Bis-(4-fluoro-phenyl)-(1,2,4)triazol-1-yl]-1-(4-(6-(4-methoxy-butoxy)-pyrimidin-4-yl)-piperazin-1-yl)-ethanone], the EC50 was found to be 68 nM.

On to `COC1CCN(c2cc(N3CCN(C(=O)Cn4nc(-c5ccc(F)cc5)nc4-c4ccc(F)cc4)CC3)ncn2)CC1` [Example 07.08.06.], for which the EC50 came out at 259 nM.

Regarding `O=C(Cn1nc(-c2ccc(F)cc2)nc1-c1ccc(F)cc1)N1CCN(c2cc(OCCCO)ncn2)CC1` [Example 07.09.20.], the EC50 turned out to be 65 nM.

Consider `O=C(Cn1nc(-c2ccccc2)nc1-c1ccc(OC(F)F)cc1)N1CCN(c2ccccn2)CC1` [Example 7.04.166], for which the EC50 amounted to 431 nM.

Consider `COc1ccc(-c2nc(-c3ccccc3)n(CC(=O)N3CCN(c4cc(C)ccn4)CC3)n2)cc1OC` [Example 07.02.20.], for which the EC50 is 162 nM.

With `CCC(C)c1nc(-c2ccc(F)c(C)c2)nn1CC(=O)N1CCN(c2cc(OC)ncn2)CC1` (centres unmarked) [Example 07.04.103.], the EC50 came out at 748 nM.

Take `COc1ccc(-c2nc(-c3ccc(F)cc3)nn2CC(=O)N2CCN(c3ccccn3)CC2)cc1` [Example 07.10.41.]: the EC50 turned out to be 182 nM.

`COc1ccnc(N2CCN(C(=O)Cn3nc(-c4ccc(F)c(C)c4)nc3-c3ccccc3)CC2)c1` [Example 07.04.063.]: the EC50 was found to be 61 nM.

Consider `COc1cccc(N2CCN(C(=O)Cn3nc(-c4ccc(F)cc4)nc3-c3ccc(F)cc3)CC2)n1` [Example 07.02.03.], for which the EC50 turned out to be 220 nM.

Consider `COc1ccc(-c2nc(-c3ccc(F)cc3)n(CC(=O)N3CCN(c4ncccn4)CC3)n2)cc1` [Example 07.04.033.], for which the EC50 was determined as 37 nM.

Consider `COc1nccc(N2CCN(C(=O)Cn3nc(-c4ccc(F)cc4)nc3-c3ccc(F)cc3)CC2)n1` [Example 07.03.19.], for which the EC50 came out at 440 nM.

Consider `Cc1cc(-c2nc(C3CCC(C)CC3)n(CC(=O)N3CCN(c4ncccn4)CC3)n2)ccc1F` (centres unmarked) [Example 07.04.128.], for which the EC50 worked out at 485 nM.

With `Cc1ccnc(N2CCN(C(=O)Cn3nc(-c4cccc(F)c4)nc3-c3cccc(F)c3)CC2)c1` [Example 07.04.024.], the EC50 worked out at 945 nM.

As to `CC(=O)N1CCC(Oc2cc(N3CCN(C(=O)Cn4nc(-c5ccc(F)cc5)nc4-c4ccc(F)cc4)CC3)ncn2)CC1` [Example 07.09.08.], the EC50 stood at 74 nM.

Take `COc1ccnc(N2CCN(C(=O)Cn3nc(-c4ccc(F)c(C)c4)nc3C3CCCC3)CC2)c1` [Example 07.04.110.]: the concentration giving a half-maximal response (EC50) came out at 409 nM.

On to `Cc1cc(-c2nc(CC(C)C)n(CC(=O)N3CCN(c4ccccn4)CC3)n2)ccc1F` [Example 07.04.106.], for which the EC50 was determined as 387 nM.

Turning to `COCCOc1cc(N2CCN(C(=O)Cn3nc(-c4ccc(F)cc4)nc3-c3ccc(F)cc3)CC2)ncn1` [Example 07.06.03.], the EC50 was determined as 101 nM.

Turning to `COc1ccc(-c2nc(-c3ccccc3)n(CC(=O)N3CCN(c4ncccn4)CC3)n2)cc1` [Example 07.10.02.], the EC50 is 37 nM.

`COC[C@@H](C)Oc1cc(N2CCN(C(=O)Cn3nc(-c4ccc(F)cc4)nc3-c3ccc(F)cc3)CC2)ncn1` [Example 07.09.14.]: the EC50 came out at 38 nM.

`COc1cccc(-c2nc(-c3ccc(F)cc3)n(CC(=O)N3CCN(c4cc(C)ccn4)CC3)n2)c1` [Example 07.04.027.]: the EC50 was 38 nM.

`COc1cc(N2CCN(C(=O)Cn3nc(-c4ccc(F)cc4)nc3-c3ccc(F)cc3)CC2)ncn1` [Example 07.04.016.]: the EC50 turned out to be 62 nM.

On to `O=C(Cn1nc(-c2ccc(F)cc2)nc1-c1ccc(F)cc1)N1CCN(c2cc(Cl)ncn2)CC1` [Example 07.03.09.], for which the EC50 was determined as 121 nM.

With `COCCOCCOc1cc(N2CCN(C(=O)Cn3nc(-c4ccc(F)cc4)nc3-c3ccc(F)cc3)CC2)ncn1` [Example 07.09.06.], the EC50 turned out to be 130 nM.

For `COc1ccc(-c2nc(-c3ccc(F)cc3)nn2CC(=O)N2CCN(c3cccnn3)CC2)cc1` [Example 07.04.043.], the EC50 came to 334 nM.

For the compound `Cc1cc(-c2nc(C3CCCC3)n(CC(=O)N3CCN(c4ncccn4)CC3)n2)ccc1F` [Example 07.04.111.], the EC50 is 131 nM.

As for `O=C(Cn1nc(-c2ccc(F)cc2)nc1-c1ccc(F)cc1)N1CCN(c2nccc3ccccc23)CC1` [Example 07.04.006.], the EC50 is 899 nM.

`O=C(Cn1nc(-c2ccc(F)cc2)nc1-c1ccc(F)cc1)N1CCN(c2ccc(Br)cn2)CC1` [Example 07.03.20.]: the EC50 was 467 nM.

In the case of `CCCCc1nc(-c2ccc(F)c(C)c2)nn1CC(=O)N1CCN(c2ncccn2)CC1` [Example 07.04.117.], the EC50 came out at 390 nM.

On to `Cc1ccnc(N2CCN(C(=O)Cn3nc(-c4ccc(F)c(C)c4)nc3CC(C)C)CC2)c1` [Example 07.04.105.], for which the EC50 was 382 nM.

As for `Cc1ccnc(N2CCN(C(=O)Cn3nc(-c4ccc(F)cc4)nc3-c3ccc(F)cc3)CC2)c1` [Example 07.02.05.], the EC50 worked out at 44 nM.

`O=C(Cn1nc(-c2ccc(F)cc2)nc1-c1ccc(F)cc1)N1CCN(c2cc(OCCOCCO)ncn2)CC1` [Example 07.09.04.]: the EC50 was 64 nM.

As for `CCOC(=O)c1cccc(N2CCN(C(=O)Cn3nc(-c4ccc(F)cc4)nc3-c3ccc(F)cc3)CC2)c1` [Example 07.03.02.], the EC50 is 1280 nM.

With `O=C(Cn1nc(-c2ccc(F)cc2)nc1-c1ccc(F)cc1)N1CCN(c2ccc(Cl)nn2)CC1` [Example 07.04.009.], the EC50 is 166 nM.

As for `COc1cccc(N2CCN(C(=O)Cn3nc(-c4ccc(F)cc4)nc3-c3ccc(F)cc3)CC2)c1` [Example 07.04.014.], the EC50 is 467 nM.

With `O=C(Cn1nc(-c2ccc(F)cc2)nc1-c1ccc(F)cc1)N1CCN(c2ccncn2)CC1` [Example 07.04.003.], the EC50 was 259 nM.

For `CCCc1nc(-c2ccc(F)c(C)c2)nn1CC(=O)N1CCN(c2cc(OC)ncn2)CC1` [Example 07.04.080.], the EC50 amounted to 771 nM.

In the case of `CCCCCc1nc(-c2ccc(F)c(C)c2)nn1CC(=O)N1CCN(c2cc(OC)ncn2)CC1` [Example 07.04.126.], the EC50 was determined as 110 nM.

Take `N#Cc1ccc(-c2nc(-c3ccccc3)nn2CC(=O)N2CCN(c3ncccn3)CC2)cc1` [Example 07.10.25.]: the EC50 is 639 nM.

`Cc1ccnc(N2CCN(C(=O)Cn3nc(-c4ccc(F)c(C)c4)nc3C(C)C)CC2)c1` [Example 07.04.090.]: the EC50 was determined as 1160 nM.

With `CC(C)Oc1cc(N2CCN(C(=O)Cn3nc(-c4ccc(F)cc4)nc3-c3ccc(F)cc3)CC2)ncn1` [Example 07.06.04.], the EC50 came to 153 nM.

`COc1cnnc(N2CCN(C(=O)Cn3nc(-c4ccc(F)cc4)nc3-c3ccc(F)cc3)CC2)c1` [Example 07.04.017.]: the EC50 is 421 nM.

For `O=C(Cn1nc(-c2ccc(F)cc2)nc1C1CCCC1)N1CCN(c2ccccn2)CC1` [Example 07.04.047.], the EC50 worked out at 1380 nM.

Turning to `Cc1cc(-c2nc(C(C)C)n(CC(=O)N3CCN(c4ccccn4)CC3)n2)ccc1F` [Example 07.04.087.], the EC50 is 904 nM.
